From patent US7026282B1, “Peptide antagonists of the human urokinase receptor and method for selecting them” (Cancerforskningsfonden AF 1989 (Fonden Til Fremme AF …, priority 1998, dated 2006)
pKi: −log10 of the molar value. Positions of bridges follow the written chain, without caps; N, C: chain ends. Non-standard residues stand in square brackets, D forms with d. Residues, ends and D or L forms follow the SMILES beside them. Chains are numbered I, II in the order given. No end group written: not given here. Cha = N[C@@H](CC1CCCCC1)C(=O)O; βAla = NCCC(=O)O

Assays:
[1] = Peptide stability in mouse serum ex vivo, read out by ATF cell-binding inhibition; format: in vitro ADME; details: 10% mouse serum, up to 24 hours, 37° C.
Protocol: Mouse blood was collected from anaesthetised mice (femal nu/nu-META/Bom (Bomholtgaard, Ry, Denmark)) by cardiac puncture. The blood samples were allowed to clot for 30 min at room temperature, followed by centrifugation at 1,000×g for 10 min at 20° C., and the sera were sterile filtered using 0.8 μm/0.2 μm filters (Acrodisc PF, Gelman Science, MI) and then stored at 4° C. until use. The peptide antagonists were added to fresh pooled mouse serum at the indicated concentrations (FIG. 5) and incubated at 37° C. for different periods, between 0 hours and 24 hours. Serum incubated samples were diluted 1:10 in binding buffer (0.1% bovine serum albumin and 5 mM Hepes in Eagles MEM supplemented with Glutamax-1, pH 7.4). Subsequently, cell binding experiments in the presence of ^125I-labelled human ATF were performed in duplicates as above, by preincubating MDA-MB-231 BAG cells at 37° C. 15 min with the 1:10 diluted serum incubated samples ± peptides. In parallel, peptides diluted in binding buffer alone were included as controls.
AE118 and AE78 (for comparison) were incubated at 37° C. in the presence of 10% mouse serum for different time intervals, up to 24 hours. The incubation mixtures were tested for their ability to inhibit binding of radio-labelled human uPA amino terminal fragment (ATF) to monolayer cultures of human MDA-MB-231 breast cancer cells, as described in Example 7.

[2] = Pharmacokinetic experiment: functional peptide in mouse serum after i.p. injection; format: in vivo; details: 62.5 mg/kg, 1 to 24 hours
Protocol: Female nu/nu-META/Bom mice were injected intraperitoneally (i.p) with a solution of the peptide AE 120 (6.25 mg/ml in 0.5% (w/v) poloxamer 237 in PBS, pH 7.3) at a dose of 62.5 mg/kg mouse weight. At different time points between 1 hour and 24 hours, blood was collected from anaesthetised mice by cardiac puncture. The blood samples were allowed to clot for 30 min at room temperature, followed by centrifugation at 1,000×g for 10 min at 20° C., and the sera were stored frozen at −80° C. prior to assay. The presence of functional peptide antagonists in serum was determined by diluting the serum samples 1:10 with binding buffer (0.1% bovine serum albumin and 5 mM Hepes in Eagles MEM supplemented with Glutamax-1, pH 7.4) and analysing the samples in cell binding experiments with MDA-MB-231 BAG cells and ^125I-labelled human ATF as described in Example 7. As an internal standard, AE120 was added exogenously to pooled mouse sera at final concentrations of 12.5 nM, 25 nM, 125 nM and 250 nM.

[3] = target: T1, neuramimidase-treated human suPAR (soluble recombinant uPAR) (Homo sapiens, UniProt Q03405); assay: Biacore Binding Assay (surface plasmon resonance), ligand binding to immobilised suPAR; details: for koff: Biacore, 5° C., immobilised suPAR, read-out: kdiss (dissociation rate constant, off-rate)
T1 construct: A soluble recombinant variant of human uPAR (suPAR) was expressed in Chinese hamster ovary (dhfr) cells; made in house; host or cells: Chinese hamster ovary (dhfr) cells
Protocol: Association rate constants (kass), dissociation rate constants (kdiss) and equilibrium binding constants (kd) for various synthetic peptides and receptor binding derivatives of human uPA were determined by surface plasmon resonance (R. Karlsson et al. (1991) J. Immunol. Meths. 145:229–240) using a BIAcore2000™ instrument (Pharmacia Biosensor, Uppsala, Sweden). Due to the low isoelectric point of uPAR (pI≈4.5) terminal sialic acid residues were removed from its N-linked carbohydrates to facilitate chemical immobilisation on the sensor chip. This was accomplished by incubating purified suPAR (1 mg/ml in 50 mM phosphate, 150 mM NaCl, pH 7.4) with 5 μg/ml neuramimidase for 4 hours at 37° C. […] Coupling of the neuramimidase-treated suPAR to a BIAcore sensor chip was achieved by injection of 20 μg/ml suPAR in 10 mM sodium acetate pH 5.0 for 6 minutes at a flow rate of […] per minute using a carboxymethylated dextran matrix (CM5 sensor chip) preactivated with N-hydroxysuccinimide/N-ethyl-N′-[3-([…])propyl]carbodiimide according to the manufacturer's recommendations. Approximately 1,500–2,000 resonance units (RU) were immobilised by this procedure (corresponding to 1–2 ng suPAR/mrn^2).
Sensorgrams (RU versus time) were recorded (FIG. 2) at a flow rate of 10 μl per min at 5° C. using several different concentrations of the ligand (synthetic peptides, uPA, the amino-terminal fragment (ATF) of uPA, or the growth factor domain (GFD) of uPA) in the range of 10 to 1000 nM in running buffer (10 mM HEPES, 150 mM NaCl, 3 mM EDTA (pH 7.4) including 0.005% surfactant P-20). Stock solutions of peptides from combinatorial chemistry were made in DMSO (10 mg peptide/ml DMSO). The sensor chip was regenerated at the end of each run by injection of 0.1 M acetic acid, 0.5 M NaCl. Data obtained from parallel mock coupled flow cells (subjected to the coupling procedure in the presence of buffer only) served as blank sensorgrams for subtraction of changes in bulk refractive index. The sensorgrams obtained were analysed by non-linear least squares fitting using BIAevaluation 2.0 software (Pharmacia Biosensor, Uppsala, Sweden) assuming single-site association and dissociation models.
Purified human suPAR (1 mg/ml in 50 mM phosphate, 150 mM NaCl, pH 7.4) was incubated with 5 μg/ml neuramimidase for 4 hours at 37° C.
In order to couple the neuramimidase-treated suPAR to a BIAcore sensor chip, 20 μg/ml suPAR in 10 mM sodium acetate (pH 5.0) was injected for 6 minutes at a flow rate of 5 μl per minute using a carboxymethylated dextran matrix (CM5 sensor chip), thereby immobilising approximately 1,500–2,000 resonance units (RU), which correspond to 1–2 ng suPAR/mm^2. The CM5 sensor chip was preactivated with N-hydroxysuccinimide/N-ethyl-N′-[3-([…])propyl]carbodiimide in accordance with the manufacturer's recommendations.
Surface plasmon resonance sensorgrams (RU versus time) were recorded at a flow rate of 10 μl per min at 5° C. using several different concentrations of the ligand (i.e. the relevant peptide or GFD) in the range from 10 to 1000 nM in running buffer (10 mM HEPES, 150 mM NaCl, 3 mM EDTA (pH 7.4) including 0.005% surfactant P-20).
The sensor chip was regenerated at the end of each run by injection of 0.1 M acetic acid, 0.5 M NaCl.
Data from parallel mock coupled flow cells (subjected to the coupling procedure in the presence of buffer only) served as blank sensorgrams for subtraction of changes in bulk refractive index.
The obtained sensorgrams were analysed by non-linear least squares fitting using BIAevaluation 2.0 software (Pharmacia Biosensor, Uppsala, Sweden) assuming single-site ssociation and dissociation models.

[4] = Mouse tolerance of peptide dosing; format: in vivo; details: 4 i.p. injections 8 hours apart, 1.38 mg each, total 5.52 mg per mouse
Protocol: Mice were given a series of 4 intraperitoneal injections, spaced 8 hours apart, of peptide AE120 dispersed in a poloxamer formulation containing 2.9% DMSO. Each injection delivered 1.38 mg of peptide in 200 μL of formula, so that each mouse received a total of 5.52 mg over the 24-hour study period.

uPAR-ATF interaction = uPAR-ATF interaction (Homo sapiens, UniProt Q03405); details: read-out: apparent inhibition constant; cited from earlier work
Chain of uPAR-ATF interaction (Q03405 23-305 limits assumed): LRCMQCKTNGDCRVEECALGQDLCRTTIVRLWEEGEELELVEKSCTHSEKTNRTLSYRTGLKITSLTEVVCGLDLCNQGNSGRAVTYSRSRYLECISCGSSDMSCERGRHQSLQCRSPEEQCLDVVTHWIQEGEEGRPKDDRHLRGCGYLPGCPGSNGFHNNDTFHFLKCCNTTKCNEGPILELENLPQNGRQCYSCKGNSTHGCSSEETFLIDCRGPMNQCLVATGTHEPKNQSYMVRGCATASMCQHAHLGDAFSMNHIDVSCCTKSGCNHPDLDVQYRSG

Relative kdiss ([3]; relative to the Growth Factor Domain of uPA (GFD = 1.0)) | Compound | ability to inhibit ATF binding after incubation in mouse serum (stability) [1] | activity of peptide antagonist in mouse serum after dosing [2] | koff [3] [s⁻¹] | tolerance: effect on behaviour or well-being [4] | pKi (uPAR-ATF interaction)
– | CC(C)C[C@H](NC(=O)[C@H](Cc1ccc(O)cc1)NC(=O)[C@@H](CCCNC(=N)N)NC(=O)[C@@H](CO)NC(=O)[C@H](Cc1ccccc1)NC(=O)[C@H](CC1CCCCC1)NC(=O)[C@@H](N)CC(=O)O)C(=O)N[C@@H](Cc1c[nH]c2ccccc12)C(=O)N[C@@H](CO)C(=O)NCC(=O)NCCCC[C@H](NC(=O)CCNC(=O)CNC(=O)[C@H](CO)NC(=O)[C@H](Cc1c[nH]c2ccccc12)NC(=O)[C@H](CC(C)C)NC(=O)[C@H](Cc1ccc(O)cc1)NC(=O)[C@@H](CCCNC(=N)N)NC(=O)[C@@H](CO)NC(=O)[C@H](Cc1ccccc1)NC(=O)[C@H](CC1CCCCC1)NC(=O)[C@@H](N)CC(=O)O)C(=O)O [AE120, α-[DChaFsrYLWSGβA]-ε-[DChaFsrYLWSG]-K] (I: H-D[Cha]F[dS][dR]YLWSG[βAla]K-OH / II: H-D[Cha]F[dS][dR]YLWSG; amide I:12-II:C) | slight reduction | retained its activity in mouse serum for several hours | 3e-05 | no visible sign of any effect on the behaviour or well-being of the mice | –
72.1 | AEPMPHSLNFSQYLWYT [AE78, reference compound] | lost the majority of its inhibitory activity | – | 0.0101 | – | 8.00
